Experimental data as given in PubChem BioAssay AID1985 (Southern Research Specialized Biocontainment Screening …, 2009).

system: S. Typhi PhoP-promoter GFP reporter, fluorescence, 4 h; assay: PhoP regulon inhibitor project modified counter assay, GFP fluorescence readout, dose response (AID 1985)

Compound | IC50 [µM]
Cc1nc(N)c(Cc2ccc(Cl)cc2Cl)c(N)n1 | 83.9
COc1ccc(N2C(=O)CC(N3CC=C(c4ccccc4)CC3)C2=O)cc1 (stereo not given) | 82.4
O=C(N/N=C/c1ccc([N+](=O)[O-])o1)c1ccc(O)cc1 | 18.3
Cc1cccc(C(=O)NCCC(=O)Nc2ccc(F)c([N+](=O)[O-])c2)c1 | 144
O=C(CC1NCCc2ccccc21)Nc1ccc(Oc2ccccc2)cc1 (stereo not given) | 79.9
O=C1CC(NC(=O)C(F)(F)F)=NN1c1ccccc1 | 143
Cn1c(-c2ccc3c(c2)OCO3)cnc1NCc1ccc(Cl)cc1 | 140
C/C(=N\NC(=O)c1cccc(Br)c1)c1ccccn1 | 54.4
Cc1ccc2sc(N(CCCN(C)C)C(=O)c3ccc(Br)s3)nc2c1C | 120
Cc1cc([N+](=O)[O-])cc(/C=N\NC(=O)C2COc3ccccc3O2)c1O (stereo not given) | 23.3
O=C(c1cccs1)c1no[n+]([O-])c1C(=O)c1cccs1 | 14
O=[N+]([O-])c1ccc(/C=N/NC(=S)Nc2ccc(Cl)cc2Cl)s1 | 25
COc1cc(CNCCc2c[nH]c3ccccc23)ccc1OCc1ccc(F)cc1 | 82.7
CCn1nnc(NC(=O)c2ccc([N+](=O)[O-])o2)n1 | 28.4
N#C/C(=N\Nc1ccc([N+](=O)[O-])cc1)C(N)=S | 110
NC1CCN(c2nc3c(cc2F)c(=O)c(C(=O)O)cn3-c2ccc(F)cc2F)C1 (stereo not given) | < 0.23
CCn1cc(C(=O)O)c(=O)c2cc(F)c(N3CCN(C(=S)Nc4ccccc4OC)CC3)cc21 | 6.7
CC(C)(C)/C(O)=C/c1nc2cc(Cl)ccc2oc1=O | 11.2
O=C(CC(=O)c1ccccc1O)c1cccc(F)c1 | 37.9
Cc1ccc(OCC(O)Cn2c(=N)n(CCN3CCCCC3)c3ccccc32)cc1 (stereo not given) | 67.9
CCCCOCCCNc1ncnc2c1[nH]c1ccccc12 | 72.8
CSc1nc2ccc(Cl)cc2[nH]1 | 50.4
Cc1ccc(OCC(=O)N/N=C\c2c(C)[nH]n(-c3ccccc3)c2=O)c([N+](=O)[O-])c1 | 53.6

Compound | IC50 [µM]
CC1CC(=O)c2c(cc3c(-c4c(O)cc(O)c5c(O)c6c(cc45)OC(C)CC6=O)c(O)cc(O)c3c2O)O1 (stereo not given) | 27
O=C(Nc1cccc(Cl)c1)Nc1nccs1 | 55.3
CC1=NN(c2nc3ccccc3[nH]2)C(=O)C1Cc1ccccc1 (stereo not given) | 36.5
CCn1cc(C(=O)O)c(=O)c2cc(F)c(N3CCN(S(=O)(=O)c4ccc(NC(C)=O)cc4)CC3)cc21 | 86.6
CCOc1ccc(Nc2nc(NCC3CCCO3)c3ccccc3n2)cc1 (stereo not given) | 14.2
Cc1ccc(C(=O)Sc2cccccc2=O)cc1 | 1.97
Oc1cccc2ccc(Nc3ccccn3)nc12 | 11.6
CSc1cccc(NC(=O)/C=C/c2ccccc2)c1 | 84.9
CC(C)(C)CC(C)(C)c1ccc(OCCOCC[N+](C)(C)Cc2ccccc2)cc1 | 34.9
OC1CCCN(Cc2ccc3ccc4cccc5ccc2c3c45)C1 (stereo not given) | 118
O=C(Cc1cccs1)N/N=C\c1ccc([N+](=O)[O-])s1 | 20.1
Cc1cc(OCCCCCN2CCCC2)ccc1Cl | 112
COc1ccc(C(=O)NC(=S)NNC(=O)c2cccc(C)c2)cc1 | 46.8
O=C(CCN1CCOCC1)c1ccc(Br)cc1 | 129
O=C(CN1C2=NCCCN2c2ccccc21)c1ccc(Br)s1 | 135
CCCCCc1ccc(OCCCC[n+]2ccccc2)c(CCCCC)c1 | 74.5
O=C(CC(=O)c1c(F)cccc1Cl)c1ccccc1O | 41.4
CCN1CCc2c(C#N)c(NCc3ccccc3)nc(NCCO)c2C1 | 140
CN1CCN(c2nc3cc(C(F)(F)F)ccc3n3cccc23)CC1 | 101
C#CCOCCOCCOCCNc1nc(N2CCN(C(=O)CCCCCCCCCCNC(=O)[C@H](CCCCN)n3cc(CCO)nn3)CC2)nc(N2CCN(C(=O)CCCCCCCCCCNC(=O)[C@H](CCCCN)n3cc(C[C@@H](C)CC)nn3)CC2)n1 | 38
CCN1CCN(Cc2ccc(NC(=O)c3cc(NC(=O)c4cc(-c5ccc(OC)cc5)n[nH]4)cc(OC)c3)cc2C(F)(F)F)CC1 | 102
Cc1cc(C)c(NC(=O)C[N+](C)(C)CC(O)COc2cccc3ccccc23)c(C)c1 (stereo not given) | 75.9
Fc1ccc([C@@H]2CCNC[C@H]2COc2ccc3c(c2)OCO3)cc1 | 77.5

Compound | IC50 [µM]
O=C(/C=C/c1ccccc1)NC(=S)NNC(=O)c1cnccn1 | 146
CN1C(=O)NC(c2cccc(O)c2)C(C(=O)c2cccs2)C1(O)C(F)(F)F (stereo not given) | 40.6
CN1CCN(C2Cc3ccc(Cl)cc3Sc3ccc(F)cc32)CC1 (stereo not given) | 39.6
O=C(Nc1nnc(C(F)(F)F)s1)c1ccc(Br)s1 | 66.8
O=C1c2ccccc2C2=Nc3ccccc3SC(c3ccccc3F)C12 (stereo not given) | 21
O=C(Cn1cc[n+](CC(=O)c2ccc(Cl)cc2Cl)c1)c1ccc(Cl)cc1Cl | 37.2
c1ccc(Nc2ccnc(Nc3ccccc3)n2)cc1 | 67.2
CCn1cc(C(=O)O)c(=O)c2cc(F)c(N3CCN(C(=S)Nc4ccc(OC)cc4)CC3)cc21 | 5.64
CCCCOc1ccc(NC2=NC3(CCCCC3)N=C(N)N2)cc1 | 20.1
OC1(c2ccc(Cl)cc2)CCN(Cc2c[nH]c3ccccc23)CC1 | 101
Cc1cccc(OCC(O)Cn2c(=N)n(CCN3CCCCC3)c3ccccc32)c1 (stereo not given) | 50.2
O=C(N/N=C/c1ccccc1O)C1SCCCS1 | 82.7
O=c1[nH]c2ccccc2n2c(=S)[nH]nc12 | 68.5
O=c1[nH]cc(F)c(=O)[nH]1 | 0.378
COc1ccc(C(=O)NC(=S)NNC(=O)c2cnccn2)cc1 | 80.5
CNCc1c(OCc2ccccc2F)ccc2ccccc12 | 127
COc1ccc(CNc2ncnc3c2[nH]c2ccccc23)cc1 | 59.2
CC(C)CCC(CCNCc1ccccn1)c1ccc(Cl)cc1 (stereo not given) | 79.4
CCOc1ccc(Nc2nc(N)c3ccccc3n2)cc1 | 44.5
OC(c1cc(C(F)(F)F)nc2c(C(F)(F)F)cccc12)C1CCCCN1 (stereo not given) | 37.6
O=Cc1ccc(O)cc1O | 109
CCCNC1=C(C)C(=O)C2=C(C1=O)C(COC(N)=O)[C@]1(OC)C3NC3CN21 (stereo not given in full) | 51.8
CCC(C)NC(=O)c1cn(CC)c2cc(N3CCN(C)CC3)c(F)cc2c1=O (stereo not given) | 38.4

Compound | IC50 [µM]
C#CCOCCOCCOCCNc1nc(N2CCN(C(=O)CCCCCCCCCCNC(=O)[C@H](CCCCN)n3cc(C[C@@H](C)CC)nn3)CC2)nc(N2CCN(C(=O)CCCCCCCCCCNC(=O)[C@@H]([C@H](C)O)n3cc(C)nn3)CC2)n1 | 138
OC(CNCCc1ccc(Cl)cc1)COc1cc(Cl)ccc1Cl (stereo not given) | 36.6
C#CCOCCOCCOCCNc1nc(N2CCN(C(=O)CCCCCCCCCCNC(=O)[C@H](CCCCN)n3cc(C)nn3)CC2)nc(N2CCN(C(=O)CCCCCCCCCCNC(=O)[C@@H]([C@H](C)CC)n3cc(CCCCCN)nn3)CC2)n1 | 79
O=C(CSc1nnc(-c2ccccc2)n1-c1ccc(Cl)cc1)NC1CCS(=O)(=O)C1 (stereo not given) | 31.2
NC(=O)c1ccc(N=C2C(=O)Nc3ccc([N+](=O)[O-])cc32)cc1 | 31.8
O=C(CSc1nnc(-c2cccnc2)n1Cc1ccco1)c1ccc2ccccc2c1 | < 0.23
O=C1C(Cl)=C(NCc2cccnc2)C(=O)c2ccccc21 | 41.6
O=C(Nc1cccc(C2=NCCN2)c1)Nc1cccc(C2=NCCN2)c1 | 36.2
O=[N+]([O-])c1cc(F)c2cccnc2c1O | 4.83
CCNC(=O)Oc1ccc[nH]c1=O | 99.4
CC(C(=O)NC1C=CS(=O)(=O)C1)N1C(=O)/C(=C/c2ccc(Cl)cc2)SC1=S (stereo not given) | 22.2
Cc1ccccc1Nc1cc(C)c2c(O)cccc2n1 | 25.5
CCCCCC(=O)NC(=S)NNC(=O)CC | 84.2
CN(C)CC/C=C1/c2cc(F)ccc2Sc2ccc(Cl)cc21 | 84.9
Fc1ccc(CCNCc2ccccc2Cl)cc1 | 69.7
CCOC(=O)N1CCC(=NNc2ccnc3cc(Cl)ccc23)CC1 | 61.2
N/C(=N\OS(=O)(=O)c1ccccc1)c1cccnc1 | 9.86
NC(N)=Nc1nc(-c2ccccc2)c2cc(Cl)ccc2n1 | 97.8
CCCCCCCCCCOC(=O)Cn1c(COc2ccc(C)cc2)[n+](C)c2ccccc21 | 16.6
CCN(CCC(=O)Nc1ccc(Br)c(C)c1)Cc1ccccc1 | 79.8
CN1CCN(c2c(F)cc3c(=O)c(C(=O)O)cn4c3c2OCN4C)CC1 | < 0.23
O=[N+]([O-])c1cc([N+](=O)[O-])c2cccnc2c1Oc1ccccc1O | 88
Cc1cc(C2CCCCC2)n(O)c(=O)c1 | 20.9

Compound | IC50 [µM]
Cc1ccc(Cn2c(=N)n(CC(O)COc3ccccc3)c3ccccc32)cc1 (stereo not given) | 83.6
C=C1c2cccc(O)c2C(O)=C2C(=O)[C@]3(O)C(O)=C(C(N)=O)C(=O)[C@@H](N(C)C)[C@@H]3[C@@H](O)[C@H]12 | 0.376
COC(=O)C1=C(C)N(Cc2ccccc2)C(=NCc2cccc(C(F)(F)F)c2)N[C@H]1c1cccc(F)c1 | 86.1
COc1ccc(OCc2n(CC(=O)OC3CC(C)CCC3C(C)C)c3ccccc3[n+]2C)cc1 (stereo not given) | 80.6
ON=C1/C(=N\O)CC2(C/C1=N/O)OCCO2 | 112
O=C(Nc1ccccc1)Nc1nccs1 | 128
CCCCCOc1ccc(C)cc1CN(CCCl)CCCl | 138
CCCCCCCCCCCCCCCCn1cc[n+](C)c1 | 19.1
c1cc2c(cc1C1CCCCC1)c1c3n2CCCNC3CCC1 (stereo not given) | 39.9
O=C(Nc1nnc(-c2cccs2)o1)c1cccc(Oc2ccccc2)c1 | 39.9
CCCCCCCCCn1c2c(c(=N)c3c1CCC3)CCC2 | 36.7
CC(C(=O)NC1C=CS(=O)(=O)C1)N1C(=O)/C(=C/c2cccc(Cl)c2)SC1=S (stereo not given) | 33.6
O=C(Cc1ccccc1)NNC(=S)NC(=O)c1cccs1 | 37.5
CCCCCCCCCCCCCCCC[N+](C)(C)C | 19.3
O=C(Cc1ccc([N+](=O)[O-])cc1)N/N=C/c1ccc([N+](=O)[O-])o1 | 13.1
O=C(N/N=C/c1cc(O)ccc1Br)c1cccnc1 | 33.2
Nc1nnc(-c2cccc(Cl)c2Cl)c(N)n1 | 33
C/C(=N\NC(=O)c1ccccc1O)c1cccs1 | 89.3
CCOC(=O)C1Nc2c(F)cc(C)cc2C2c3ccccc3CC12 (stereo not given) | 136
CC1CCc2c(N3CCC(O)CC3)c(F)cc3c(=O)c(C(=O)O)cn1c23 (stereo not given) | 4.44
CC(=O)NC(c1cccc([N+](=O)[O-])c1)c1ccc2cccnc2c1O (stereo not given) | 98.9
CCCCCC(CC(=O)NO)C(=O)NC(C(=O)N1CCCC1CO)C(C)C (stereo not given) | 13.7
CCCOc1ccc(S(=O)(=O)n2cc(F)c(=O)[nH]c2=O)cc1 | 42.2
